Converted amounts (≈) assume the structure as drawn. A value given as a limit tells only on which side of the number the result lay.

For the series the following is noted: buffer; pH 7.4; 200.0 µM.
`CCOc1cccc(CNc2ccc(O)cc2)c1OCc1ccc(Cl)cc1`: the solubility (kinetic) was greater than 57.6 µg/mL.

In the case of `Cc1ccc(C(=O)NCCNS(=O)(=O)c2ccccc2[N+](=O)[O-])cc1`, the solubility (kinetic) was greater than 54.5 µg/mL.

`O=C(CN1CCN(S(=O)(=O)c2ccccc2F)CC1)N1CCc2ccccc2C1`: the solubility (kinetic) stood at 12.8 µg/mL (≈ 30.7 µM).

`O=C(c1ccc2ncsc2c1)N1CCCCC1` returned a kinetic solubility greater than 36.9 µg/mL.

For the molecule `O=Cc1sc(N2CCOCC2)nc1-c1ccccc1`, the solubility (kinetic) stood at 4.5 µg/mL (≈ 16.4 µM).

For `Cc1ccc(C(=O)NC(=O)CSc2nncn2C)cc1`, the kinetic solubility is greater than 43.6 µg/mL.

The molecule `Cc1ccc2nc(-c3ccc(O)c(O)c3)cn2c1.Cl` had a solubility (kinetic) of 22.7 µg/mL.

`Cc1ccc(NS(=O)(=O)c2cccc3nsnc23)cc1[N+](=O)[O-]`: the solubility (kinetic) came out at 50.2 µg/mL (≈ 143 µM).

Regarding `Cc1cc(NC(=O)NCC(F)(F)F)no1`, the solubility (kinetic) is greater than 33.5 µg/mL.

Take `O=C(CN1CCCCC1)N1CCN(c2ccccc2)CC1`: the kinetic solubility is greater than 43.1 µg/mL.

`CN(C)/C=N/c1ncc(C(=O)c2ccc(-c3ccccc3)cc2)s1` registered a kinetic solubility of 1.1 µg/mL (≈ 3.28 µM).

`Cl.O=C(O)c1ccc(Nc2ncnc3ccccc23)cc1` registered a solubility (kinetic) greater than 45.3 µg/mL.

The molecule `S=c1[nH]cnc2scc(-c3ccc(Cl)cc3)c12` came in with a solubility (kinetic) of 0.5 µg/mL (≈ 1.79 µM).

Consider `CC(C)CC(NC(=O)C1CCC(C)CC1)C(=O)NCc1ccco1` (centres undefined), for which the kinetic solubility was 25.2 µg/mL (≈ 75.3 µM).

Molecule `CC1CN(C(=O)c2cccc(Oc3ccccc3)c2)CC(C)O1` (centres undefined) yielded a kinetic solubility greater than 46.7 µg/mL.

`COC(=O)C1=C(C)N(C)C(=O)NC1c1c(OC)ccc2ccccc12` (centres undefined): the kinetic solubility came out at 5.4 µg/mL (≈ 15.9 µM).

In the case of `O=C(NCc1ccc(F)cc1)Nc1cccc([N+](=O)[O-])c1`, the kinetic solubility was 1 µg/mL (≈ 3.46 µM).

On to `COc1ccc(-n2c(C)ccc2-c2ccccc2)cn1`, for which the solubility (kinetic) was found to be 5.9 µg/mL (≈ 22.3 µM).

Regarding `COc1ccccc1CN1CCNC(=O)C1CC(=O)O` (centres undefined), the solubility (kinetic) is greater than 41.7 µg/mL.

For the molecule `COc1ccc(CN(C)CC(=O)Nc2c(C)cccc2C)c(OC)c1`, the solubility (kinetic) is greater than 51.4 µg/mL.

In turn, `COc1ccc2c(c1OC)C(=O)N(c1cccc(NC(C)=O)c1)C2` returned a solubility (kinetic) of 46.6 µg/mL (≈ 143 µM).

`Cc1ccccc1CC(=O)Nc1ccc2c(C)cc(=O)oc2c1` showed a solubility (kinetic) of 2.1 µg/mL (≈ 6.83 µM).

As to `NC(=O)CSc1nnc(NC(=O)c2ccc(Br)o2)s1`, the solubility (kinetic) is greater than 54.5 µg/mL.

For the molecule `Cc1ccc(C(=O)Nc2nc3ccc(S(C)(=O)=O)cc3s2)cc1C`, the kinetic solubility is less than 0.4 µg/mL.

In turn, `COc1ccc(CNc2nc3ccccc3n2C)c(O)c1` had a solubility (kinetic) of 10.7 µg/mL (≈ 37.8 µM).

`CC1=C(C)C(OCCCl)N(c2cc(O)c(Cl)cc2F)C1=O` (centres undefined) came in with a solubility (kinetic) of 46.3 µg/mL (≈ 139 µM).

Turning to `CC(C)c1cccc(C(C)C)c1OCCCCCN1CCOCC1`, the kinetic solubility turned out to be 33.4 µg/mL (≈ 100 µM).

Molecule `O=C(Nc1cc(-c2nc3ncccc3o2)ccc1Cl)c1ccco1` displayed a kinetic solubility of 4.4 µg/mL (≈ 13 µM).

As to `CCc1cc2cc(C)cc(C)c2[nH]c1=S`, the kinetic solubility worked out at 3.9 µg/mL (≈ 17.9 µM).

As to `COc1ccc(CSc2ncnc3sccc23)cc1F`, the kinetic solubility was less than 0.3 µg/mL.

Turning to `O=C(O)c1csc(-c2ccccc2)n1`, the kinetic solubility was found to be 28.2 µg/mL (≈ 137 µM).

For `Nc1nc(C2CCOCC2)cs1`, the kinetic solubility is greater than 27.6 µg/mL.

Take `CCC(CO)Nc1ncnc2onc(-c3ccc(F)cc3)c12` (centres undefined): the kinetic solubility is greater than 45.3 µg/mL.

Molecule `COC(=O)c1ccc(C2NCCc3cc(OC)c(OC)cc32)cc1` (centres undefined) registered a solubility (kinetic) greater than 49.1 µg/mL.

On to `Cc1ccc(OCCc2csc(N)n2)cc1`, for which the kinetic solubility came to 34.8 µg/mL (≈ 149 µM).

The molecule `COc1ccc(F)cc1S(=O)(=O)NCCCn1ccnc1` had a solubility (kinetic) greater than 47 µg/mL.

On to `Nc1cc(Cl)ccc1C(=O)OCC(=O)NCC1CCCO1` (centres undefined), for which the solubility (kinetic) is greater than 46.9 µg/mL.

Regarding `Cc1cc(C2CC(=O)Nc3ccccc3S2)c(C)s1` (centres undefined), the solubility (kinetic) is less than 0.6 µg/mL.

Molecule `CC(C)N(Cc1ccc(F)cc1)C(=O)c1cc2ccccc2oc1=O` returned a kinetic solubility of 0.8 µg/mL (≈ 2.36 µM).

`CCCCNC(=O)C(=O)Nc1cc2c3c(c1)CCC(=O)N3CCC2` yielded a kinetic solubility of 1.5 µg/mL (≈ 4.55 µM).

The molecule `FC(F)(F)c1cc(Nc2ccccc2)nc(-c2ccccn2)n1` registered a solubility (kinetic) of 2.9 µg/mL (≈ 9.17 µM).

As for `CC1(C)CC(=O)C=C(Nc2ccc(F)c(Cl)c2)C1`, the kinetic solubility is greater than 40.2 µg/mL.

`S=C(NCc1ccc(Cl)cc1)NCc1ccco1` registered a kinetic solubility of 39.5 µg/mL (≈ 141 µM).

`CC1CCCC(C)N1C(=O)COC(=O)c1c[nH]c2ccccc12` (centres undefined) registered a kinetic solubility of 8.1 µg/mL (≈ 25.8 µM).

`COC(=O)CNC(=O)c1ccc(F)cc1` came in with a solubility (kinetic) of 27.1 µg/mL (≈ 128 µM).

The molecule `Cc1cc(NC(=O)COc2c(C)cccc2C)no1` displayed a solubility (kinetic) of 6.9 µg/mL (≈ 26.5 µM).

Molecule `Cc1nc2ccccc2c2c(N)c3ccccc3n12` displayed a kinetic solubility of 16.4 µg/mL (≈ 66.3 µM).

For `O=C(c1cc2cc(Cl)ccc2[nH]1)N1CCc2ccccc2C1`, the solubility (kinetic) came out at 0.9 µg/mL (≈ 2.9 µM).

As to `CCOc1ccc(-c2c(C)sc3nc[nH]c(=O)c23)cc1`, the solubility (kinetic) is 24.6 µg/mL (≈ 85.9 µM).

For `Cn1c(=O)c2c([nH]c(=S)n2Cc2ccc(Cl)cc2)n(C)c1=O`, the solubility (kinetic) is greater than 50.5 µg/mL.

Molecule `NC(=O)C1CCN(C(=O)c2cc(Cl)c3c(c2)OCCO3)CC1` yielded a solubility (kinetic) greater than 48.7 µg/mL.

In turn, `COc1cc2ncnc(Nc3ccc4c(c3)OCO4)c2cc1OC` came in with a solubility (kinetic) of 10.1 µg/mL (≈ 31 µM).

`COc1ccc2[nH]c(C(=O)Nc3ccc4c(c3)OCO4)cc2c1` displayed a solubility (kinetic) of 1.1 µg/mL (≈ 3.54 µM).

In the case of `Cc1c(C(=O)N2CCNCC2)oc2ccccc12.Cl`, the kinetic solubility was 40.9 µg/mL.

Take `Cc1cc(-c2cccs2)c(C#N)c(=S)[nH]1`: the kinetic solubility came to 28.3 µg/mL (≈ 122 µM).

As to `Cc1ccc(NC(=O)COc2ccc(Br)cc2CO)cc1S(=O)(=O)N1CCOCC1`, the solubility (kinetic) was 21.1 µg/mL (≈ 42.3 µM).

Molecule `Cc1noc(C)c1C(=O)OCC(=O)NCc1ccc(Cl)cc1` gave a solubility (kinetic) of 15.6 µg/mL (≈ 48.3 µM).

Turning to `O=C(O)CC(NC(=O)C12CC3CC(CC(C3)C1)C2)c1cccc([N+](=O)[O-])c1` (centres undefined), the kinetic solubility is greater than 55.9 µg/mL.

Molecule `CCN(C(=O)CN1C(=O)CN(C)C1=O)c1cccc2ccccc12` displayed a solubility (kinetic) greater than 48.8 µg/mL.

On to `COc1cc(CCC(=O)Nc2nccs2)cc(OC)c1OC`, for which the kinetic solubility is greater than 48.4 µg/mL.

Take `O=C1/C(=C\c2ccc(O)c(O)c2)N=C2CCCCCN12`: the solubility (kinetic) is greater than 40.8 µg/mL.

`Cc1ccnc(SCc2ccc([N+](=O)[O-])cc2)n1` yielded a solubility (kinetic) of 29.7 µg/mL (≈ 114 µM).

The molecule `O=C(CNS(=O)(=O)c1ccccc1)NCc1ccco1` had a kinetic solubility greater than 44.1 µg/mL.

`O=C(Nc1cccc2ncccc12)c1ccc(OCc2ccccc2)cc1` registered a solubility (kinetic) of less than 0.4 µg/mL.

As to `NC1=C([N+](=O)[O-])C(c2ccc3c(c2)OCO3)C2=C(CCCC2=O)O1` (centres undefined), the kinetic solubility is 48.4 µg/mL (≈ 147 µM).

As to `CC(C)C(=O)N1CCN(S(=O)(=O)c2ccc3ccccc3c2)CC1`, the kinetic solubility was found to be 23.2 µg/mL (≈ 67 µM).

Molecule `CCOCCCNC(=O)c1cc2c(s1)-c1ccccc1SC2` showed a kinetic solubility of 27.6 µg/mL (≈ 82.8 µM).

Molecule `COCCn1c(C(C)C)nc2ccccc21` came in with a solubility (kinetic) greater than 32.7 µg/mL.

Regarding `CCOC(=O)[C@H](CCc1ccccc1)N[C@H]1CCc2ccccc2N(CC(=O)O)C1=O.Cl`, the solubility (kinetic) was greater than 69.1 µg/mL.

Molecule `O=C(Nc1cccc(Cl)c1)N1C[C@H]2C[C@@H](C1)c1cccc(=O)n1C2` gave a solubility (kinetic) greater than 51.6 µg/mL.

Molecule `CCOc1ccccc1NC(=O)c1ccccc1-c1ccccc1` displayed a solubility (kinetic) of 8.5 µg/mL (≈ 26.8 µM).

With `Cc1ccc(S(=O)(=O)NCCC2=CCCCC2)cc1C(N)=O`, the solubility (kinetic) was greater than 48.4 µg/mL.

`CN1CCN(c2ccc(CNS(=O)(=O)c3ccccc3)cc2)CC1`: the solubility (kinetic) was determined as 12.6 µg/mL (≈ 36.5 µM).

`Cc1ccc(S(=O)(=O)N2CCN(C(=O)COC(=O)c3cc([N+](=O)[O-])ccc3NCCO)CC2)c(C)c1` came in with a solubility (kinetic) of 17 µg/mL (≈ 32.7 µM).

The values are drawn from PubChem BioAssay AID1996.
